Test results published in PubChem BioAssay (NCI).
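Method: 48-hour compound exposure of cells in 96-well plates, five concentrations, linear interpolation of endpoints. TGI marks complete inhibition of growth.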

Tests used:
Experiment in all cases: NCI anticancer screen, dose series, 48 h
CCRF-CEM leukemia = system: CCRF-CEM leukemia
HCC-2998 colon = system: HCC-2998 colon
SK-MEL-2 melanoma = system: SK-MEL-2 melanoma
TK-10 renal = system: TK-10 renal
HOP-92 NSCLC = system: HOP-92 NSCLC
SW-620 colon = system: SW-620 colon
SF-268 CNS = system: SF-268 CNS
LXFL 529 NSCLC = system: LXFL 529 NSCLC
KM20L2 colon = system: KM20L2 colon
UO-31 renal = system: UO-31 renal
SK-OV-3 ovarian = system: SK-OV-3 ovarian
SNB-75 CNS = system: SNB-75 CNS
RXF 393 renal = system: RXF 393 renal
UACC-62 melanoma = system: UACC-62 melanoma
SK-MEL-28 melanoma = system: SK-MEL-28 melanoma
NCI-H522 lung = system: NCI-H522 lung
NCI-H23 lung = system: NCI-H23 lung
IGROV1 ovarian = system: IGROV1 ovarian
OVCAR-5 ovarian = system: OVCAR-5 ovarian
A549 NSCLC = system: A549 NSCLC
HOP-62 NSCLC = system: HOP-62 NSCLC
SN12C renal = system: SN12C renal
CAKI-1 renal = system: CAKI-1 renal
ACHN renal = system: ACHN renal
MALME-3M melanoma = system: MALME-3M melanoma
OVCAR-4 ovarian = system: OVCAR-4 ovarian
SF-295 CNS = system: SF-295 CNS
M14 melanoma = system: M14 melanoma
COLO 205 colon = system: COLO 205 colon
OVCAR-3 ovarian = system: OVCAR-3 ovarian
SNB-19 CNS = system: SNB-19 CNS
MOLT-4 leukemia = system: MOLT-4 leukemia
DMS 114 small cell lung = system: DMS 114 small cell lung
HCT-15 colon = system: HCT-15 colon
K-562 leukemia = system: K-562 leukemia
SNB-78 CNS = system: SNB-78 CNS
XF 498 CNS = system: XF 498 CNS
DMS 273 small cell lung = system: DMS 273 small cell lung
786-0 renal = system: 786-0 renal
M19-MEL melanoma = system: M19-MEL melanoma
SK-MEL-5 melanoma = system: SK-MEL-5 melanoma
KM12 colon = system: KM12 colon
NCI-H460 lung = system: NCI-H460 lung
OVCAR-8 ovarian = system: OVCAR-8 ovarian
UACC-257 melanoma = system: UACC-257 melanoma
LOX IMVI melanoma = system: LOX IMVI melanoma
RPMI-8226 leukemia = system: RPMI-8226 leukemia
DLD-1 colon = system: DLD-1 colon
EKVX NSCLC = system: EKVX NSCLC
HL-60(TB) leukemia = system: HL-60(TB) leukemia
A498 renal = system: A498 renal
U251 CNS = system: U251 CNS
SF-539 CNS = system: SF-539 CNS
HT29 colon = system: HT29 colon
SR leukemia = system: SR leukemia
HCT-116 colon = system: HCT-116 colon
NCI-H226 lung = system: NCI-H226 lung

Measured: TGI

O=C1N[C@H](Cc2cnc[nH]2)C(=O)N2CCC[C@@H]12
not listed: A498 renal | U251 CNS | SF-539 CNS | HT29 colon | SR leukemia | HCT-116 colon | NCI-H226 lung
> 100 µM: all other assays above

COc1ccc(C(=O)c2c(C(C(=O)c3ccc(OC)cc3)C(=O)c3ccc(OC)cc3)n(C(=O)c3ccc(OC)cc3)c3ccccc23)cc1
not listed: UACC-257 melanoma
> 100 µM: all other assays above
